Measured values as given in patent US20100028259A1, “USE OF ORGANIC CATION TRANSPORTERS FOR CANCER DIAGNOSIS AND THERAPY” (The Regents of the University of California, priority 2006, published 2010).
Read-outs that look alike come from different tables or passages of the source.

Experiments:
HEK-hOCT2 cells = assay: Cellular accumulation of platinum in HEK-hOCT2 cells (ICP-MS); format: in vitro ADME, human; conditions: 2-hr exposure
Experimental: (§1) For the inhibitor studies, the incubation medium also contained disopyramide (150 μM). […] For the inhibitor studies, the incubation medium also contained cimetidine (1.5 mM). […] After drug exposure, the cells were washed with ice-cold PBS three times and harvested by scraping and centrifugation. The cell-associated platinum was determined by ICP-MS and normalized for protein content. Data are expressed as mean±SD from a single experiment performed in triplicate. Experiments were replicated for OCT1 and OCT2, and similar results were obtained.
The cellular accumulation of platinum was determined as described in Holzer et al., Mol. Pharmacol., 66:817-823 (2004) with some modifications. Briefly, the cells were grown in 100 mm×20 mm dishes in the culture medium without any antibiotics to over 90% confluence. For HEK 293 cells, poly-D-lysine coated dishes were used. For platinum accumulation, the cells were incubated in the culture medium containing the indicated concentrations of the platinum compounds at 37° C. in 5% CO2 for 2 hr unless specified. After incubation, the dishes were immediately placed on ice and the cells were washed with 6 ml of ice-cold PBS for three times and collected with a rubber policeman. The cell pellets were obtained by centrifugation at 400×g and at 4° C. for 15 min. For the OCT inhibitor studies, the incubation medium also contained the indicated inhibitor (i.e., disopyramide or cimetidine) in addition to the platinum-based compounds. The resulting cell pellets were then dissolved into 200 μl of 70% nitric acid at 65° C. for at least 2.5 hours, and then distilled water containing 10 ppb of iridium (Sigma) and 0.1% Triton X-100 was added to the samples to dilute nitric acid to 7%. The platinum content was measured by inductively plasma coupled mass spectrometry (ICP-MS) in the Analytical Facility at the University of California at Santa Cruz (Santa Cruz, Calif.). Cell lysates from a set of identical cultures were used for BCA protein assay.

HEK-MOCK cells = assay: Cellular accumulation of platinum in HEK-MOCK cells (ICP-MS); format: in vitro ADME, human; conditions: cimetidine 1.5 mM
Experimental: as §1
The cellular accumulation of platinum was determined as described in Holzer et al., Mol. Pharmacol., 66:817-823 (2004) with some modifications. Briefly, the cells were grown in 100 mm×20 mm dishes in the culture medium without any antibiotics to over 90% confluence. For HEK 293 cells, poly-D-lysine coated dishes were used. For platinum accumulation, the cells were incubated in the culture medium containing the indicated concentrations of the platinum compounds at 37° C. in 5% CO2 for 2 hr unless specified. […] The platinum content was measured by inductively plasma coupled mass spectrometry (ICP-MS) in the Analytical Facility at the University of California at Santa Cruz (Santa Cruz, Calif.). […]

[1] = tested on: six colon cancer cell lines; assay: MTT drug sensitivity, summary over the six colon cancer cell lines; format: cell-based, human
Experimental: (§2) Cytotoxicity of the platinum-based compounds was measured by MTT (thiazolyl blue tetrazolium bromide) assay. Cells were seeded in 100 μl of the culture medium without any antibiotics in 96-well plates at a predetermined cell density. For HEK 293 cells, poly-D-lysine coated plates were used. […] For the OCT inhibitor studies, the inhibitors (i.e., disopyramide or cimetidine) were added to the medium at a specified concentration immediately before the addition of the platinum-based compounds. After incubation for a specified time period, the drug-containing medium was replaced with fresh, drug-free medium and the incubation was continued for a total of 72 hours (start from the addition of platinum-based compounds). Then, the MTT assay was performed similarly as described in Alley et al., Cancer Res., 48:589-601 (1988). […] The maximal cell growth was the cell growth in the medium without any platinum-based compounds; C is the concentration of the platinum-based compound, and γ is the slope factor.
The resistance factor (RF) due to the presence of cimetidine was defined as the ratio of the IC50 value in the presence of cimetidine to that in the absence of cimetidine.
(§3) The cell seeding density was 6,000-, 8,000-, 6,000-, 15,000-12,000- and 4,000 cells/well for HCT116, HT29, RKO, SW620, LS180, and DLD cells, respectively. When cimetidine (1.5 mM) was used, it was added to the wells immediately before the addition of the platinum-based drugs. The resistance factor (RF) was defined as the ratio of the mean IC50 value in the presence to that in the absence of cimetidine. Data are expressed as mean±SD from six measurements, and each measurement was performed in quadruplicate.

LS180 = assay: MTT drug sensitivity, colon cancer cell line LS180; format: cell-based, human
Experimental: as §2, §3

HEK-hOCT3 cells = assay: MTT drug sensitivity assay in HEK-hOCT3 cells; format: cell-based, human
Experimental: as §2
(§4) Briefly, the cells were seeded in 96-well plates at a density of 5,000 cells/well for the transfected MDCK cells or 12,000 cells/well for the transfected HEK 293 cells. The platinum-based drugs were added on the following day. After the specified time periods of drug exposure, the drug-containing medium was replaced with fresh, drug-free medium, and the incubation was continued for a total of 72 hours (start from the time when the drug was added). After incubation, the cell growth was determined by an MTT assay. Data are expressed as mean±SD from 3 to 6 independent experiments with each performed in quadruplicate. The resistance factor (RF) was defined as the ratio of the mean IC50 value in the MOCK cells to that in the OCT-transfected cells.

MDCK-hOCT1 cells = assay: MTT drug sensitivity assay in MDCK-hOCT1 cells; format: cell-based, canine
Experimental: as §2, §4
Briefly, MDCK cells were seeded at a density of 5,000 cells/well in 96-well plates and exposed to the test compounds for 7 hours on the following day. After incubation for a total of 72 hours, the cell growth was determined by an MTT assay. The data for carboplatin was taken from Table 1 and was not determined simultaneously with the other compounds. The resistance factor (RF) was defined as the ratio of the mean IC50 value in MDCK-MOCK cells to that in MDCK-hOCT1 cells. Data are expressed as mean±SD from six measurements, and each measurement was performed in quadruplicate.

RKO = assay: MTT drug sensitivity, colon cancer cell line RKO; format: cell-based, human
Experimental: as §2, §3

O=C1[O][Pt]2([NH][C@@H]3CCCC[C@H]3[NH]2)[O]C1=O [oxaliplatin]
cellular platinum accumulation rate in HEK-hOCT2, cimetidine (HEK-hOCT2 cells; 0.3 μM, cimetidine 1.5 mM): 1.80±0.13 pmol/mg protein-hr
cellular platinum accumulation rate in HEK-hOCT2 (HEK-hOCT2 cells; drug 0.3 μM): 20.2±1.54 pmol/mg protein-hr
effect of cimetidine on platinum accumulation / cellular uptake in HEK-MOCK (HEK-MOCK cells): significant decrease
IC50 ([1]; absence of cimetidine, read-out: mean±SE of IC50 in the six cell lines, control): 3880 ± 1420 nM
IC50 ([1]; cimetidine 1.5 mM, read-out: mean±SE of IC50 in the six cell lines, in the presence of cimetidine): 29100 ± 10700 nM
IC50 (LS180; LS180, absence of cimetidine, read-out: IC50 Control): 1300 ± 410 nM
IC50 (LS180; LS180, cimetidine 1.5 mM, read-out: IC50 Cimetidine-treated): 8390 ± 2770 nM
IC50 (HEK-hOCT3 cells; drug exposure 7 hour): 2220 ± 410 nM
IC50 (HEK-hOCT3 cells; drug exposure 24 hour): 620 ± 190 nM
IC50 (HEK-hOCT3 cells; drug exposure 72 hour): 690 ± 190 nM
IC50 (MDCK-hOCT1 cells; SAR study Table 4, 7 hours of drug exposure, read-out: IC50 MDCK-hOCT1): 480 ± 190 nM
IC50 (MDCK-hOCT1 cells; co-incubation with disopyramide 150 μM, read-out: IC50 in MDCK-hOCT1, disopyramide-treated): 22800 ± 10500 nM
IC50 (MDCK-hOCT1 cells; disopyramide study (FIG. 2D), without disopyramide, read-out: IC50 in MDCK-hOCT1, control): 3790 ± 1570 nM
IC50 (MDCK-hOCT1 cells; drug exposure 7 hour, MTT at 72 hours, Table 1, read-out: IC50 MDCK-hOCT1): 3890 ± 1300 nM
IC50 (MDCK-hOCT1 cells; drug exposure 24 hour, MTT at 72 hours, Table 1, read-out: IC50 MDCK-hOCT1): 1790 ± 580 nM
IC50 (MDCK-hOCT1 cells; drug exposure 72 hour, Table 1, read-out: IC50 MDCK-hOCT1): 1680 ± 270 nM
IC50 (RKO; absence of cimetidine, read-out: IC50 Control): 1640 ± 560 nM
IC50 (RKO; cimetidine 1.5 mM, read-out: IC50 Cimetidine-treated): 9700 ± 2700 nM
